Results as given in patent US6723726B1 (SmithKline Beecham Corporation, priority 1996, dated 2004).
pIC50: −log10 of the molar value. Structures can show the parent of a compound that is named as a salt. Where two headings read alike, the source gives them in different places.

Key:
[1] = target: T1, EGFr isolated from solubilised A431 cell membranes (Homo sapiens, UniProt P00533); test: Substrate phosphorylation assay, EGFr; type: biochemical; conditions: ATP and peptide at Km, 30 min, room temperature
T1 construct: EGFr isolated from solubilised A431 cell membranes; endogenous in cells; host or cells: A431 cell membranes (solubilised)
Method: (§1) The substrate phosphorylation assays use baculovirus expressed, recombinant constructs of the intracellular domains of c-erbB-2 and c-erbB-4 that are constitutively active and EGFr isolated from solubilised A431 cell membranes. The method measures the ability of the isolated enzymes to catalyse the transfer of the γ-phosphate from ATP onto tyrosine residues in a biotinylated synthetic peptide (Biotin-[…]. […] The reaction is stopped by the addition of EDTA (final concentration 0.15 mM) and a sample is transferred to a streptavidin-coated 96-well plate. The plate is washed and level of phosphotyrosine on the peptide is determined using a Europium-labelled antiphosphotyrosine antibody and quantified with a time-resolved fluorescence technique.

[2] = target: T2, c-erbB-2 (baculovirus expressed recombinant intracellular domain) (Homo sapiens, UniProt P04626); test: Substrate phosphorylation assay, c-erbB-2; type: biochemical; conditions: ATP and peptide at Km, 30 min, room temperature
T2 construct: baculovirus expressed, recombinant constructs of the intracellular domains of c-erbB-2 and c-erbB-4 that are constitutively active; made in house
Method: as §1

[3] = target: T3, c-erbB-4 (baculovirus expressed recombinant intracellular domain) (Homo sapiens, UniProt Q15303); test: Substrate phosphorylation assay, c-erbB-4; type: biochemical; conditions: ATP and peptide at Km, 30 min, room temperature
T3 construct: baculovirus expressed, recombinant constructs of the intracellular domains of c-erbB-2 and c-erbB-4 that are constitutively active; made in house
Method: as §1

[4] = system: HB4a erbB-2 cells; test: Cell proliferation assay, HB4a transformed by over-expression of c-erbB-2; type: cell-based, human; conditions: read-out: Cell Proliferation HB4a erbB-2 IC50
Method: (§2) The cell proliferation assay uses an immortalised human breast epithelial cell line (HB4a) which has been transformed by over-expression of c-erbB-2. Growth of these cells in low serum is dependent upon the c-erbB-2 tyrosine kinase activity. The specificity of the effect of the test compounds on tyrosine kinase dependent growth over general toxicity is assessed by comparison to an HB4a cell line which has been transfected with ras. Cells are plated at 3000/well in 96-well plates in 0.1 ml medium and allowed to attach overnight, test compound is added in 0.1 ml medium, with a final concentration of 0.5% DMSO, and the plates incubated for 4 days at 37° C. The cells are then examined microscopically for evidence of morphological detransformation and cell mass is estimated by staining with methylene blue and measuring the absorbance at 620 nm. The results are shown in Table 1 below as the IC50 values in nM. Activity against a range of naturally occurring EGFr or c-erbB-2 over-expressing human tumour cell lines (BT474-breast, HN5-head and neck, N87-gastric and Calu3-lung) is assessed with selected compounds by the same methodology. The results are also shown in Table 1 below as the IC50 values in nM.

[5] = system: HB4a ras cells; test: Cell proliferation assay, HB4a transfected with ras (general toxicity comparison); type: cell-based, human; conditions: read-out: Cell Proliferation HB4a ras IC50
Method: as §2

[6] = system: HN5 cells; test: Cell proliferation assay, HN5 head and neck tumour cell line; type: cell-based; conditions: Homo sapiens, HN5, 96 h; 4 days, methylene blue staining; read-out: Cell Proliferation HN5 IC50
Method: as §2

[7] = system: BT474 cells; test: Cell proliferation assay, BT474 breast tumour cell line; type: cell-based, human; conditions: Homo sapiens, BT-474, 96 h; 4 days, methylene blue staining; read-out: Cell Proliferation BT474 IC50
Method: as §2

[8] = system: Calu3 cells; test: Cell proliferation assay, Calu3 lung tumour cell line; type: cell-based, human; conditions: Homo sapiens, Calu-3, 96 h; 4 days, methylene blue staining; read-out: Cell Proliferation Calu3 IC50
Method: as §2

[9] = Homo sapiens, HB4a, 96 h, 4 days, methylene blue staining
[10] = 4 days, methylene blue staining

T3 sequence (Q15303 676-1308 limits assumed): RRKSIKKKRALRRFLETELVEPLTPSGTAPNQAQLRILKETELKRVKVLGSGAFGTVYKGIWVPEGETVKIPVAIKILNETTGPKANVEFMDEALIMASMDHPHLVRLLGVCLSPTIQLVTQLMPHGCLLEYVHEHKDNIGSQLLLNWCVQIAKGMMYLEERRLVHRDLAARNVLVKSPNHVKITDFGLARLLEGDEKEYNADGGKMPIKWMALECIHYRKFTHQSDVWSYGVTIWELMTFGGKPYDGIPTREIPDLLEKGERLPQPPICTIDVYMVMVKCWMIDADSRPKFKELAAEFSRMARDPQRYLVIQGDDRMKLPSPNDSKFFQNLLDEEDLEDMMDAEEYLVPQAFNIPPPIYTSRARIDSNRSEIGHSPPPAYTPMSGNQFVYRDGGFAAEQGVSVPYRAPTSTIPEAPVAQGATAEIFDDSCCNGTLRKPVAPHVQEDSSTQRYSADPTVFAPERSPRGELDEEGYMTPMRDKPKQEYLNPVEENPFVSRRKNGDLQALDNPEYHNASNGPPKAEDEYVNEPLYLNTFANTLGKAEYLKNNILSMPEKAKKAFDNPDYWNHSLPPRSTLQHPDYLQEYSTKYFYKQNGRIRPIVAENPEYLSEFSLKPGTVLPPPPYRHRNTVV
T2 sequence (P04626 676-1255 limits assumed): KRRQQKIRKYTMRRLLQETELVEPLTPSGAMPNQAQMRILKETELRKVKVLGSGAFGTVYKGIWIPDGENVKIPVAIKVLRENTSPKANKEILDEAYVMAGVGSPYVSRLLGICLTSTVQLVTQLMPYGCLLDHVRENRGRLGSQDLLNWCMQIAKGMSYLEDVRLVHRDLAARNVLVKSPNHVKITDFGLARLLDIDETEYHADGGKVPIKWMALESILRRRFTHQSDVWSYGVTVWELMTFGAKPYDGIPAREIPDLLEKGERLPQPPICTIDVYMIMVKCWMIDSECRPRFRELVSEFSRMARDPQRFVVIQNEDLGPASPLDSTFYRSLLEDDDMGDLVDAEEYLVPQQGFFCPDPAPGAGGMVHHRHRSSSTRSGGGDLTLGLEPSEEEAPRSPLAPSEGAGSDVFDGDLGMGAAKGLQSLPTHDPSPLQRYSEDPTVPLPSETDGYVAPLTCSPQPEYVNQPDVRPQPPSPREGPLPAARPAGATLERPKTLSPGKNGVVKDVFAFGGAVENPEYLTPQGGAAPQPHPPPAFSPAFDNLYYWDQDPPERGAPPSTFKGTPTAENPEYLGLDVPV
T1 sequence (P00533 25-1210): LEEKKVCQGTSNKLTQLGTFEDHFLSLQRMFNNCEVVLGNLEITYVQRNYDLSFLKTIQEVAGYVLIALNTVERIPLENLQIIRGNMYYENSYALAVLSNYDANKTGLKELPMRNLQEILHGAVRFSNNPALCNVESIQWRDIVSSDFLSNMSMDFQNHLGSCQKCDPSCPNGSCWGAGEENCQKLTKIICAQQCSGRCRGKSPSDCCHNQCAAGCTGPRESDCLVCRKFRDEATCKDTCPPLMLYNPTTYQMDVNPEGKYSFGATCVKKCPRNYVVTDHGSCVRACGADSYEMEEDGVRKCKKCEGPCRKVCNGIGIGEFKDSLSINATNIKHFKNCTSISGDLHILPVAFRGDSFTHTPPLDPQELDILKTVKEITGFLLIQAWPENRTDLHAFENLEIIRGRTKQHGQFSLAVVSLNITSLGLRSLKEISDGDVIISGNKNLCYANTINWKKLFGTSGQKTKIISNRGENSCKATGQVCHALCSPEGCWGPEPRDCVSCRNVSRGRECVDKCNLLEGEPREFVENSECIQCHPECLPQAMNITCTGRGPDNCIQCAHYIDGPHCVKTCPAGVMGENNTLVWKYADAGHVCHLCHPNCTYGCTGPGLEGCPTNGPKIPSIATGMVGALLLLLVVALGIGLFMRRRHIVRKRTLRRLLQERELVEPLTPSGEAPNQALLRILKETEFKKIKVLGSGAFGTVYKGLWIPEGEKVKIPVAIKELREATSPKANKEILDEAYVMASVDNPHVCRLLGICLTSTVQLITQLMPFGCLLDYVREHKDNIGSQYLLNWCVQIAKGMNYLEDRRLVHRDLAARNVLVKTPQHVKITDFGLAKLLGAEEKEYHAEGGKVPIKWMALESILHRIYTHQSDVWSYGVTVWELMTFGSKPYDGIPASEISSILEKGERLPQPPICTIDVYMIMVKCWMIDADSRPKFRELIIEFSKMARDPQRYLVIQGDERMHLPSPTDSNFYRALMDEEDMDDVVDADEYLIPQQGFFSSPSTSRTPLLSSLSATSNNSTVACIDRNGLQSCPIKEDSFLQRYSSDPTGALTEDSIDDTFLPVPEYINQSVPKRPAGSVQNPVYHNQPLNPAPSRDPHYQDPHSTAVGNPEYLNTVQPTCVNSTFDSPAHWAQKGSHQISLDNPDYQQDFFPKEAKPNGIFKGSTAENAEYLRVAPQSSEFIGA

SMILES | pIC50 [1] | pIC50 [2] | pIC50 [3] | pIC50 [4, 9] | pIC50 [5, 9] | other results
CN(C)c1cc2c(Nc3ccc4c(cnn4Cc4ccccn4)c3)ncnc2cn1 [Example 12, N6,N6-Dimethyl-N4-(1-pyridin-2-ylmethyl-1H-indazol-5-yl)-pyrido[3,4-d]pyrimidine-4,6diamine Hydrochloride] | 7.11 | 9.00 | 8.52 | 6.77 | 4.49 | 
CN(C)c1cc2c(Nc3ccc4c(cnn4Cc4ccccc4F)c3)ncnc2cn1 [Example 15, N4-(1-(2-Fluoro-benzyl)1H-indazol-5-yl)-N6,N6-dimethyl-pyrido[3,4-d]pyrimidine-4.6-diamine Hydrochloride] |  | 8.15 | 8.40 | 8.40 | 4.85 | 
c1ccc(Cn2ncc3cc(Nc4ncnc5cnc(-n6cncn6)cc45)ccc32)cc1 [Example 21] | 7.27 |  |  |  |  | pIC50 [4, 10]: 6.30; pIC50 [5, 10]: 4.74
CS(=O)(=O)CCNC(=O)c1ccc(-c2cc3c(Nc4ccc5c(cnn5Cc5ccccc5)c4)ncnc3cn2)o1 [Example 36, 5-[4-(1-benzyl-1H-indazol-5-ylamino)-pyrido-[3,4-d]pyrimidin-6-yl]-furan-2-carboxylic Acid 2-methanesulphonyl-ethylamide Hydrochloride] | 5.80 |  |  | 5.51 | < 4.30 | 
Cc1nn(Cc2ccccc2)c2ccc(Nc3ncnc4cnc(N(C)C)cc34)cc12 [Example 14, N4-(1-Benzyl-3-methyl-1H-indazol-5-yl)-N6,N6-dimethyl-pyrido[3,4-d]pyrimidine-4,6-diamine] | 6.08 | 6.37 | 5.82 | 6.02 | 5.10 | 
CN(C)c1cc2c(Nc3ccc4c(ccn4S(=O)(=O)c4ccccc4)c3)ncnc2cn1 [Example 18, N4-(1-Benzenesulphonyl-1H-indol-5-yl)-N6,N6-dimethyl-pyrido[3,4-d]pyrimidine-4,6-diamine Hydrochloride] | 6.54 | 7.01 | 5.77 | 7.68 | 4.72 | pIC50 [6]: 6.36
c1ccc(Cn2ncc3cc(Nc4ncnc5cnc(-n6ccnn6)cc45)ccc32)cc1 [Example 23] | 7.51 |  |  |  |  | pIC50 [4, 10]: 6.60; pIC50 [5, 10]: 4.66
CN(C)c1cc2c(Nc3ccc4c(cnn4Cc4ccc(O)cc4)c3)ncnc2cn1 [Example 38, N4-[1-(4-Hydroxybenzyl)-1H-indazol-5-yl)-N6,N6-dimethyl-pyrido[3,4-d]pyrimidine-4,6-diamine] | 6.03 | 6.48 | 5.72 | 5.16 | 4.30 | 
Clc1cc2c(Nc3ccc4c(cnn4Cc4ccccc4)c3)ncnc2cn1 [Example 1, (1-Benzyl-1H-indazol-5-yl)-(6-chloro-pyrido[3,4-d]pyrimidin-4-yl)-amine Hydrochloride] |  | 7.57 | 7.32 |  |  | 
CN(C)c1cc2c(Nc3ccc4c(ccn4Cc4ccccc4)c3)ncnc2cn1 [Example 6, N4-(1-Benzyl-1H-indol-5-yl)-N6,N6-dimethyl-pyrido[3,4-d]pyrimidine-4,6-diamine] |  | 7.96 | 6.82 |  |  | pIC50 [6]: 6.49
CCN(C)c1cc2c(Nc3ccc4c(cnn4Cc4ccccc4)c3)ncnc2cn1 [Example 26, N4-(1-Benzyl-1H-indazol-5-yl)-N6-ethyl-N6-methyl-pyrido[3,4-d]pyrimidine-4.6-diamine] | 7.27 | 7.54 |  |  |  | pIC50 [4, 10]: 6.82; pIC50 [5, 10]: 5.05
CN(C)c1cc2c(Nc3ccc4c(S(=O)(=O)c5ccccc5)c[nH]c4c3)ncnc2cn1 [Example 19, Hydrochloride] | 6.27 | 8.22 | 6.89 |  |  | pIC50 ([4]; Homo sapiens, HB4a, 96 h): 5.92; pIC50 ([5]; Homo sapiens, HB4a, 96 h): 4.48
O=C(CN1CCN(c2cc3c(Nc4ccc5c(cnn5Cc5ccccc5)c4)ncnc3cn2)CC1)N1CCOCC1 [Example 28, 2-(4-(4-(1-Benzyl-1H-indazol-5-ylamino)-pyrido[3,4-d]pyrimidin-6-yl)-piperazin-1-yl)-1-morpholin-4-yl-ethanone] |  | 8.40 | 6.77 | 6.23 | 4.55 | 
c1ccc(Cn2ncc3cc(Nc4ncnc5cnc(-n6ccnc6)cc45)ccc32)cc1 [Example 20, (1-Benzyl-1H-indazol-5-yl)-(6-imidazol-1-yl-pyrido[3,4-d]pyrimidin-4-yl)-amine] | 8.40 | 7.48 |  | 6.33 | 4.85 | 
CN(C)c1cc2c(Nc3ccc4c(cnn4Cc4cccnc4)c3)ncnc2cn1 [Example 13, N6,N6-Dimethyl-N4-(1-pyridin-3-ylmethyl-1H-indazol-5-yl)-pyrido[3,4-d]pyrimidine-4,6-diamine Hydrochloride] | 6.43 | 7.30 | 5.62 | 6.62 | 4.55 | 
Cc1nnc(-c2cc3c(Nc4ccc5c(cnn5Cc5cccc(F)c5)c4)ncnc3cn2)o1 [Example 30, (1-(3-Fluoro-benzyl)-1H-indazol-5-yl)-(6-(5-methyl-1,3,4-oxadiazol-2-yl)-pyrido[3,4-d]pyrimidin-4-yl)-amine Hydrochloride] | 8.70 | 8.70 | 5.02 | 5.54 | 4.59 | 
c1ccc(COc2cc3c(Nc4ccc5c(cnn5Cc5ccccc5)c4)ncnc3cn2)cc1 [Example 33, (1-Benzyl-1H-indazolyl-5-yl)-(6-benzyloxy-pyrido[3,4-d]pyrimidin-4-yl)-amine Hydrochloride] | 5.72 | 6.85 | 5.57 | < 4.30 | 4.30 | 
CC(C)NC(=O)CN1CCN(c2cc3c(Nc4ccc5c(cnn5Cc5ccccc5)c4)ncnc3cn2)CC1 [Example 27, 2-(4-(4-(1-Benzyl-1H-indazol-5-ylamino)-pyrido[3,4-d]pyrimidin-6-yl)-piperazin-1-yl)-N-isopropyl-acetamide] |  | 8.70 | 6.72 | 6.42 | 4.68 | 
c1ccc(Cn2ncc3cc(Nc4ncnc5cnc(-n6nccn6)cc45)ccc32)cc1 [Example 22] | 7.66 |  |  |  |  | pIC50 [4, 10]: 5.77; pIC50 [5, 10]: 4.74
c1ccc(Cn2ncc3cc(Nc4ncnc5cnc(N6CCCC6)cc45)ccc32)cc1 [Example 24, (1-Benzyl-1H-indazol-5-yl)-(6-pyrrolidin-1-yl-pyrido[3,4-d]pyrimidin-4-yl)-amine] |  | 7.70 | 6.85 | 6.09 | 4.30 | pIC50 [7]: 6.34; pIC50 [6]: 6.05
c1ccc(Cn2ncc3cc(Nc4ncnc5cnccc45)ccc32)cc1 [Example 4, (1-Benzyl-1H-indazol-5-yl)-(pyrido[3,4-d]pyrimidin-4-yl)-amine] |  | 6.92 | 5.89 | 5.41 | 4.89 | 
CN(CCO)c1cc2c(Nc3ccc4c(cnn4Cc4ccccc4)c3)ncnc2cn1 [Example 3] |  | 8.15 | 7.64 | 6.85 | 4.48 | pIC50 [8]: 5.74
O=C(O)c1ccc(-c2cc3c(Nc4ccc5c(cnn5Cc5ccccc5)c4)ncnc3cn2)o1 [Example 35, 5-[4-(1-Benzyl-1H-indazol-5-ylamino)-pyrido-[3,4-d]pyrimidin-6-yl]-furan-2-carboxylic Acid Hydrochloride] | 5.80 |  |  | 4.57 | < 4.30 | 
